{"source": "patent US20100317639A1", "about": "(priority 2005, published 2010)", "key": {"[1]": {"test_system": "X-adrenoleukodystrophic fibroblasts", "settings": "patients suffering from adrenoleucodistrophy; literature; cited from earlier work"}, "ACAT": {"test_system": "ACAT", "settings": "literature statement; cited from earlier work"}, "[2]": {"settings": "administered in form of triglyceride; literature; cited from earlier work"}, "[3]": {"settings": "literature, cited from earlier work"}, "[4]": {"test_system": "acyl-coenzyme A:cholesterol acetyltransferase enzyme (ACAT)", "test": "Effect of the ester on ACAT activity in rat hepatic microsomes (14C-linoleic acid incorporation into cholesterol esters, TLC, beta counter)", "type": "biochemical", "settings": "rat liver microsomes 200 micrograms, mean+/-standard error", "experimental": "For the experiments of effectiveness a test to evaluate the effect of the ester formed from linoleic acid obtained from example 1 and example 4 on acyl-coenzyme A:cholesterol acetyltransferase enzyme (ACAT) activity was performed. The experiment was performed in vitro according to a classic pharmacology method, used for the evaluation of the activity of this enzyme, reported in the method book: Drug discovery and evaluation, Pharmacological assay, Ed. H. G: Vogel (Springer), p. 1119, 2002.\nHepatic microsomes were prepared as well as in the example 1.\nEight tubes were prepared, in all tubes linoleic acid-^14C (10 microM) was incubated in presence of 200 micrograms of microsomes. Each tube contained phosphate buffer 0.04 M KH2PO4, pH 7.4 with 0.05 M KCl, 0.03 EDTA, 0.3 M sucrose, 1 mM α-cyclodextrin, final volume 750 microliters. The eight tubes have been incubated at 37° C. for 10 min.\nThe esters of example 1 and 4 were pooled together and three sample solutions of concentration 12.5, 25 and 50 micromolar respectively were prepared in duplicate, therefore obtaining six sample solutions.\nThe six sample solutions were then transferred respectively in six of eight tubes prepared as above at the end of the 10 minutes (each concentration of ester separately incubated per tube). The seventh tube was added with ^14C-linoleic acid alone (without esters) and the eighth with ethanol alone (carrier in which the esters were resuspended) to evaluate a possible effect of ethanol on the enzymatic activity. All the eight tubes have been incubated at 37° C. for four minutes.\nAt the end of the time the reaction was stopped by adding chloroform:methanol 2:1. The samples of the eight tubes were extracted according to the Folch's method (1957). The lower phase of each sample containing the lipid extracts was separated and dried, then taken-up again in 1 ml of chloroform:methanol 2:1. The extract of each sample was dried and subjected to TLC. […]\nSpots were highlighted through iodine vapour. The bands which correspond to the standard for each TLC were taken off from the plate and counted in beta counter. […]"}}, "data": [{"compound": "C[C@]12CC[C@@H](O)C[C@@H]1CC[C@@H]1[C@@H]2CC[C@]2(C)[C@@H](O)CC[C@@H]12", "note": "[5α-androstan-3α,17β-diol]", "values": [{"measurement": "beta-oxidation", "setting": "[1]", "result": "increase beta-oxidation"}, {"measurement": "cholesterol esterification processes", "setting": "[1]", "result": "reduce cholesterol esterification processes"}]}, {"compound": "CCCCCCCN(Cc1ccc(CC(C)(C)C)cc1)C(=O)Nc1ccc(F)cc1F", "note": "[CL 277,082, N-(2,4-difluorophenyl)-N-(4-neopentylbenzyl)-N-(n-heptyl)urea]", "values": [{"measurement": "inhibiting the ACAT activity", "setting": "ACAT", "result": "very strong and specific"}]}, {"compound": "C[C@]12CCC(=O)C[C@@H]1CC[C@@H]1[C@@H]2CC[C@]2(C)[C@@H](O)CC[C@@H]12", "note": "[dihydrotestosterone, 5α-androstan-17β-ol-3-one]", "values": [{"measurement": "beta-oxidation", "setting": "[1]", "result": "increase beta-oxidation"}, {"measurement": "cholesterol esterification processes", "setting": "[1]", "result": "reduce cholesterol esterification processes"}]}, {"compound": "CCCCCCCC/C=C\\CCCCCCCCCCCC(=O)O", "note": "[erucic acid, erucic acid (C22:1)]", "values": [{"measurement": "effectiveness in vitro", "setting": "[2]", "result": "only partially effective"}, {"measurement": "effectiveness in vivo", "setting": "[3]; administered in form of triglyceride", "result": "little effective"}, {"measurement": "crossing of the hematoencephalic barrier", "setting": "[3]; in vivo", "result": "failed to cross the hematoencephalic barrier"}]}, {"compound": "monoester of the androgen 5α-androstan-3α,17β-diol (3α-diol) and of the linoleic acid (LA) (cis,cis-9,12-octadecadienoic acid) (18:2, n-6) [Example 1]", "values": [{"measurement": "inhibition percentage with reference to the untreated sample", "setting": "[4]; ester 12.5 microM", "result": 2.5}, {"measurement": "inhibition percentage with reference to the untreated sample", "setting": "[4]; ester 25 microM", "result": 44, "unit": "%"}, {"measurement": "inhibition percentage with reference to the untreated sample", "setting": "[4]; ester 50 microM", "result": 28, "unit": "%"}]}]}
